Common to all, as to type: cell-based, hepatitis C virus (genotype 1a-H77)
Assay [1] deals with HCV replicon with a D168E mutation in a 1a-H77 background. In words: transient replicon assay, D168E mutation in 1a-H77 background. The settings on record: Hepatitis C virus, read-out: EC50 in a transient replicon assay with a D168E mutation in a 1a-H77 background. Here is the method:
(§1) Replicon cell lines can be maintained in Dulbecco's modified Eagles medium (DMEM) containing 100 IU/ml penicillin, […] streptomycin (Invitrogen), […] G418 (Invitrogen) and 10% (v/v) fetal bovine serum (FBS). Replicon-containing cells can be seeded into 96 well plates at a density of 5000 cells per well in 100 μl DMEM containing 5% FBS. The next day, the compound can be initially diluted in dimethyl sulfoxide (DMSO) to generate a 200× stock of the inhibitor in a series of 8 half-log dilutions. The dilution series can then be diluted 100-fold in the medium containing 5% FBS. One hundred microliters of medium with the inhibitor can be added to each well of the overnight cell culture plate already containing 100 μl of DMEM with 5% FBS. In assays where the protein binding effect on inhibitor potency is assessed, the medium from the overnight cell culture plates can be replaced with 200 μl DMEM containing 40% human plasma (Innovative Research) plus 5% FBS as well as compound. The cells can be grown for 4 days in tissue culture incubators. The inhibitory effects of compounds against the replicons can be determined by measuring either the level of luciferase or HCV RNA. The luciferase assay can be conducted using a Luciferase Assay System kit (Promega) following the manufacturer's instructions. Briefly, the cell culture medium is removed and wells are washed with 200 μl of phosphate-buffered saline. To each well Passive Lysis buffer (Promega, Wis.) is added and the plates are incubated for 30 min with rocking to lyse the cells. Luciferin solution (50 μl, Promega) is added, and luciferase activity is measured with a Victor II luminometer (Perkin-Elmer). To determine HCV RNA levels, RNA extractions can be performed using the CellsDirect kit (Invitrogen), and the HCV RNA copy number can be measured using the SuperScript III Platinum One-Step qRT-PCR system (Invitrogen) and primers specific to the HCV 5′ nontranslated region. Cytotoxicity can be determined by the 3-[4,5-dimethylhiazol-2-yl]-2,5-diphenyltetrazolium bromide (MTT) colorimetric assay as follows. Replicon cells is plated in 96-well plates (4000 cells per well), the next day compound dilutions are added as in the activity assay, and the cells are grown in the presence of the inhibitors for 4 days. The MTT solution is diluted in DMEM containing 5% FBS and 60 μl of the solution is added to the cells. After 4 hrs, the cells are solubilized by the addition of 30 […]μl SDS (20% in 0.02 N HCl). The plates are incubated overnight and the optical density can be measured at 570 nm. To determine compounds' EC50 and TD50, luciferase, RNA inhibition and MTT data can be analyzed using the GraphPad Prism 4 software (equation: sigmoidal dose-response—variable slope).
(§2) The 1a-H77 replicon for transient assays further differs from the replicon in the stable cell line in that it contains NS2 through NS5B in the second cistron. The 1b-N strain replicon contains NS3 through NS5B in the second cistron, with adaptive mutations E1202G in NS3 and S2204I in NS5A. Mutagenesis can be performed using the Stratagene QuikChange XL II site-directed mutagenesis kit. Mutants' sequences can be confirmed, plasmids can be linearized with Xba I restriction enzyme and used as template for in vitro transcription reactions to make mutant replicon RNA for transient transfections. In vitro transcription can be performed with the T7 Megascript kit (Ambion).
(§3) Transient replicon transfections can be performed essentially as described by Mo et al. (Antimicrob Agents Chemother (2005) 49(10):4305-4314) with slight modifications. Fifteen micrograms of template RNA can be used to electroporate 3×10^6 cells in a 200 μl volume in a 0.2 cm cuvette. The cells used for transient transfections can be Huh7 cells obtained by curing replicon-containing cells with IFN (Mo et al., supra). Electroporation can be done with a Gene Pulser II (Bio-Rad, CA) at 480V and 25 μF, using two manual pulses. […]

Assay [2] has as its system HCV replicon with a D168V mutation in a 1a-H77 background. In words: transient replicon assay, D168V mutation in 1a-H77 background. The settings on record: Hepatitis C virus, read-out: EC50 in a transient replicon assay with a D168V mutation in a 1a-H77 background. Here is the method:
as §1, §2, §3
For orientation: Replicon systems follow genome replication, usually without infectious particles.

Assay [3] has as its system HCV replicon with a R155K mutation in a 1a-H77 background. The experiment in a line: transient replicon assay, R155K mutation in 1a-H77 background. The settings on record: Hepatitis C virus, read-out: EC50 in a transient replicon assay with a R155K mutation in a 1a-H77 background. Here is the method:
as §1, §2, §3

What is called EC50 is the concentration at which the effect is half-maximal. Consider `CC(C)(C)OC(=O)N[C@H]1CCCCC/C=C\[C@@H]2C[C@@]2(C(=O)NS(=O)(=O)C2CC2)NC(=O)[C@@H]2C[C@@H](Oc3nc4ccccc4nc3C(C)(F)F)CN2C1=O` [Example 1, tert-butyl (2R,6S,13aS,14aR,16aS,Z)-14a-(cyclopropylsulfonylcarbamoyl)-2-(3-(1,1-difluoroethyl)quinoxalin-2-yloxy)-5,16-dioxo-1,2,3,5,6,7,8,9,10,11,13a,14,14a,15,16,16a-hexadecahydrocyclopropa[e]pyrrolo[1,2-a][1,4]diazacyclopentadecin-6-ylcarbamate], for which the EC50 in assay [1] was 3 to 20 nM; in assay [2], 50 to 250 nM; in assay [3], below 1 nM.

As for `CC(F)(F)c1nc2ccccc2nc1O[C@@H]1C[C@H]2C(=O)N[C@]3(C(=O)NS(=O)(=O)C4CC4)C[C@H]3/C=C\CCCCC[C@H](NC(=O)c3ccon3)C(=O)N2C1` [Example 3, N-((2R,6S,13aS,14aR,16aS,Z)-14a-(cyclopropylsulfonylcarbamoyl)-2-(3-(1,1-difluoroethyl)quinoxalin-2-yloxy)-5,16-dioxo-1,2,3,5,6,7,8,9,10,11,13a,14,14a,15,16,16a-hexadecahydrocyclopropa[e]pyrrolo[1,2-a][1,4]diazacyclopentadecin-6-yl)isoxazole-3-carboxamide], the EC50 in assay [1] was below 3 nM; in assay [2], 50 to 250 nM; in assay [3] it was below 1 nM.

As to `CC(C)(C)C(=O)N[C@H]1CCCCC/C=C\[C@@H]2C[C@@]2(C(=O)NS(=O)(=O)C2CC2)NC(=O)[C@@H]2C[C@@H](Oc3nc4ccccc4nc3C(C)(F)F)CN2C1=O` [Example 4, (2R,6S,13aS,14aR,16aS,Z)—N-(cyclopropylsulfonyl)-2-(3-(1,1-difluoroethyl)quinoxalin-2-yloxy)-5,16-dioxo-6-pivalamido-1,2,3,5,6,7,8,9,10,11,13a,14,14a,15,16,16a-hexadecahydrocyclopropa[e]pyrrolo[1,2-a][1,4]diazacyclopentadecine-14a-carboxamide], the EC50 in assay [1] lay in the range of 3 to 20 nM; in assay [2], 50 to 250 nM; in assay [3], 1 to 10 nM.

Consider `CC(F)(F)c1nc2ccccc2nc1O[C@@H]1C[C@H]2C(=O)N[C@]3(C(=O)NS(=O)(=O)C4(C)CC4)C[C@H]3/C=C\CCCCC[C@H](NC(=O)c3ccon3)C(=O)N2C1` [Example 5, N-((2R,6S,13aS,14aR,16aS,Z)-2-(3-(1,1-difluoroethyl)quinoxalin-2-yloxy)-14a-(1-methylcyclopropylsulfonylcarbamoyl)-5,16-dioxo-1,2,3,5,6,7,8,9,10,11,13a,14,14a,15,16,16a-hexadecahydrocyclopropa[e]pyrrolo[1,2-a][1,4]diazacyclopentadecin-6-yl)isoxazole-3-carboxamide], for which the figures for the EC50 in assay [1], in assay [2] and in assay [3] were below 3 nM, below 25 nM and below 1 nM, respectively.

On to `Cc1onc(C(=O)N[C@H]2CCCCC/C=C\[C@@H]3C[C@@]3(C(=O)NS(=O)(=O)C3CC3)NC(=O)[C@@H]3C[C@@H](Oc4nc5ccccc5nc4C(C)(F)F)CN3C2=O)c1C` [Example 6, N-((2R,6S,13aS,14aR,16aS,Z)-14a-(cyclopropylsulfonylcarbamoyl)-2-(3-(1,1-difluoroethyl)quinoxalin-2-yloxy)-5,16-dioxo-1,2,3,5,6,7,8,9,10,11,13a,14,14a,15,16,16a-hexadecahydrocyclopropa[e]pyrrolo[1,2-a][1,4]diazacyclopentadecin-6-yl)-4,5-dimethylisoxazole-3-carboxamide], for which the concentration giving a half-maximal response (EC50) was below 3 nM in assay [1], 50 to 250 nM in assay [2] and 1 to 10 nM in assay [3].

On to `Cc1onc(C(=O)N[C@H]2CCCCC/C=C\[C@@H]3C[C@@]3(C(=O)NS(=O)(=O)C3(C)CC3)NC(=O)[C@@H]3C[C@@H](Oc4nc5ccccc5nc4C(C)(F)F)CN3C2=O)c1C` [Example 7, N-((2R,6S,13aS,14aR,16aS,Z)-2-(3-(1,1-difluoroethyl)quinoxalin-2-yloxy)-14a-(1-methylcyclopropylsulfonylcarbamoyl)-5,16-dioxo-1,2,3,5,6,7,8,9,10,11,13a,14,14a,15,16,16a-hexadecahydrocyclopropa[e]pyrrolo[1,2-a][1,4]diazacyclopentadecin-6-yl)-4,5-dimethylisoxazole-3-carboxamide], for which the EC50 in assay [1] is below 3 nM; in assay [2], 25 to 50 nM; in assay [3], 1 to 10 nM.

`Cc1cnc(C(=O)N[C@H]2CCCCC/C=C\[C@@H]3C[C@@]3(C(=O)NS(=O)(=O)C3CC3)NC(=O)[C@@H]3C[C@@H](Oc4nc5ccccc5nc4C(F)(F)F)CN3C2=O)cn1` [Example 11, (2R,6S,13aS,14aR,16aS,Z)—N-(cyclopropylsulfonyl)-2-(3-(trifluoromethyl)quinoxalin-2-yloxy)-6-(5-methylpyrazine-2-carboxamido)-5,16-dioxo-1,2,3,5,6,7,8,9,10,11,13a,14,14a,15,16,16a-hexadecahydrocyclopropa[e]pyrrolo[1,2-a][1,4]diazacyclopentadecine-14a-carboxamide]: the figures for the EC50 in assay [1], in assay [2] and in assay [3] were above 100 nM, 50 to 250 nM and 10 to 25 nM, respectively.

For `Cn1ccc(C(=O)N[C@H]2CCCCC/C=C\[C@@H]3C[C@@]3(C(=O)NS(=O)(=O)C3CC3)NC(=O)[C@@H]3C[C@@H](Oc4nc5ccccc5nc4C(F)(F)F)CN3C2=O)n1` [Example 12], the EC50 is 50 to 100 nM in assay [1], 250 to 1000 nM in assay [2] and 10 to 25 nM in assay [3].

`Cc1cc(C(=O)N[C@H]2CCCCC/C=C\[C@@H]3C[C@@]3(C(=O)NS(=O)(=O)C3CC3)NC(=O)[C@@H]3C[C@@H](Oc4nc5ccccc5nc4C(F)(F)F)CN3C2=O)[nH]n1` [Example 13]: the EC50 is above 100 nM in assay [1], 250 to 1000 nM in assay [2] and 10 to 25 nM in assay [3].

As to `Cc1ccsc1C(=O)N[C@H]1CCCCC/C=C\[C@@H]2C[C@@]2(C(=O)NS(=O)(=O)C2CC2)NC(=O)[C@@H]2C[C@@H](Oc3nc4ccccc4nc3C(F)(F)F)CN2C1=O` [Example 14], the figures for the EC50 in assay [1], in assay [2] and in assay [3] were 3 to 20 nM, 25 to 50 nM and below 1 nM, respectively.

In the case of `Cc1cc(C(=O)N[C@H]2CCCCC/C=C\[C@@H]3C[C@@]3(C(=O)NS(=O)(=O)C3(C)CC3)NC(=O)[C@@H]3C[C@@H](Oc4nc5ccccc5nc4C(F)(F)F)CN3C2=O)no1` [Example 17, 5-methyl-N-((2R,6S,13aS,14aR,16aS,Z)-14a-(1-methylcyclopropylsulfonylcarbamoyl)-5,16-dioxo-2-(3-(trifluoromethyl)quinoxalin-2-yloxy)-1,2,3,5,6,7,8,9,10,11,13a,14,14a,15,16,16a-hexadecahydrocyclopropa[e]pyrrolo[1,2-a][1,4]diazacyclopentadecin-6-yl)isoxazole-3-carboxamide], the EC50 was 3 to 20 nM in assay [1], 25 to 50 nM in assay [2] and below 1 nM in assay [3].

Source of the values: patent US9493506B2 (Enanta Pharmaceuticals, Inc., priority 2010, dated 2016).
